Data as given in article PMC5845869 (Frontiers in Microbiology, 2018).
Like-named read-outs stand apart in the source and are kept apart here. Marks after values point to notes of the source that are not given here. Ends that are not written are not given here.

Columns and labels:
[1] = tested on: Candida albicans ATCC 10231; assay: Checkerboard microdilution, rNFAP2 with FLC, RPMI 1640; format: cell-based; details: rNFAP2 combined with FLC; RPMI 1640, 10^3 cells ml^−1, 48 h, 35°C
Method: (§1) Antifungal synergism between rNFAP2 and FLC were investigated using the checkerboard microdilution method (Eliopoulos and Moellering, [1996]) in RPMI 1640 medium applying the drug stock preparation method and cultivation conditions described in CLSI-M27A3 document (Clinical and Laboratory Standards Institute, [2008]). […] The fractional inhibitory concentration index (FICI) as a measure of synergism and antagonism was calculated (Johnson et al., [2004]). Synergism was defined as FICI≤0.5, indifference as 0.5 < FICI ≤ 4 and antagonism was defined when FICI > 4 (Odds, [2003]).
(§2) LCM plates were incubated at 30°C, while RPMI 1640 plates at 35°C for 48 h without shaking, then the absorbance (OD620) was measured with a microtiter plate reader (SPECTROstar Nano, BMG Labtech, Ortenberg, Germany) after resuspension of the cultures with pipette. The absorbance of the untreated control cultures was referred to 100% growth in each case.
(§3) All susceptibility tests were repeated at least two times in three replicates.

[2] = tested on: Candida parapsilosis CBS 604; assay: as above; format: cell-based; details: rNFAP2 combined with FLC; RPMI 1640, 10^3 cells ml^−1, 48 h, 35°C
Method: as §1, §2, §3

[3] = tested on: Candida albicans ATCC 10231; assay: MIC, CLSI-M27A3 broth microdilution in RPMI 1640; format: cell-based
Method: (§4) Susceptibility tests were performed in low ionic strength broth medium (LCM: 0.5% glucose, 0.25% yeast extract, 0.0125% peptone (w/v)) and in RPMI 1640 medium (Sigma-Aldrich, St Louis, MO, USA) supplemented with 0.03% (w/v) L-glutamine and buffered to pH 7.0 with 0.165 M 4-morpholinopropanesulfonic acid (Sigma-Aldrich, St Louis, MO, USA).
(§5) The CLSI-M27A3 broth microdilution method (Clinical and Laboratory Standards Institute, [2008]) was applied to determinate the minimal inhibitory concentrations (MIC) of FLC (Sigma-Aldrich, St Louis, MO, USA) and rNFAP2 against the Candida isolates (10^3 cells ml^−1) under clinically approved test conditions. For this experiment, the rNFAP2 stock was prepared in bidistilled water, and FLC in dimethyl sulfoxide (DMSO). The investigated concentration range was 64–0.0625 μg ml^−1 for FCL and 100–0.39 μg ml^−1 for rNFAP2.
as §2, §3

[4] = tested on: Candida krusei CBS 573; assay: MIC, CLSI-M27A3 broth microdilution in RPMI 1640; format: cell-based; details: Pichia kudriavzevii, CBS573, 48 h, pH 7; read-out: MIC of the drug alone (a)
Method: as §4, §5, §2, §3

[5] = tested on: Candida parapsilosis CBS 604; assay: MIC, CLSI-M27A3 broth microdilution in RPMI 1640; format: cell-based
Method: as §4, §5, §2, §3

[6] = tested on: Candida krusei CBS 573; assay: Checkerboard microdilution, rNFAP2 with FLC, RPMI 1640; format: cell-based; details: rNFAP2 combined with FLC; RPMI 1640, 10^3 cells ml^−1, 48 h, 35°C
Method: as §1, §2, §3

[7] = tested on: Saccharomyces cerevisiae SZMC 0644; details: LCM, 10^5 cells ml^−1, 48 h, 30°C; MIC = growth ≤ 5% (OD620)
Method: as §4
(§6) Antifungal susceptibility tests were performed with nNFAP2, rNFAP2, and sNFAP2 and its peptide fragments in LCM medium against yeast isolates (10^5 cells ml^−1) according to the broth microdilution method described by Tóth et al. ([2016]). Final drug concentration ranged from 25 to 0.098 μg ml^−1 for rNFAP2 and sNFAP2, and from 100 to 6.25 μg ml^−1 for the synthetic peptide fragments. The rNFAP2 was tested against nine yeast isolates, while the sNFAP2 and the synthetic peptide fragments against C. albicans ATCC 10231, C. krusei CBS 573, C. parapsilosis CBS 604, and S. cerevisiae SZMC 0644.
as §2, §3

[8] = tested on: Candida albicans ATCC 10231; details: LCM, 10^5 cells ml^−1, 48 h, 30°C; MIC = growth ≤ 5% (OD620)
Method: as §4, §6, §2, §3

[9] = tested on: Candida krusei CBS 573; details: LCM, 10^5 cells ml^−1, 48 h, 30°C; MIC = growth ≤ 5% (OD620)
Method: as §4, §6, §2, §3

[10] = tested on: Candida parapsilosis CBS 604; details: LCM, 10^5 cells ml^−1, 48 h, 30°C; MIC = growth ≤ 5% (OD620)
Method: as §4, §6, §2, §3

[11] = tested on: Candida guilliermondii CBS 566; assay: MIC, CLSI-M27A3 broth microdilution in RPMI 1640; format: cell-based; details: RPMI 1640 pH 7.0, 10^3 cells ml^−1, 48 h, 35°C; MIC = growth ≤ 5%
Method: as §4, §5, §2, §3

[12] = tested on: Candida lusitaniae CBS 6936; assay: MIC, CLSI-M27A3 broth microdilution in RPMI 1640; format: cell-based; details: RPMI 1640 pH 7.0, 10^3 cells ml^−1, 48 h, 35°C; MIC = growth ≤ 5%
Method: as §4, §5, §2, §3

[13] = tested on: Candida glabrata CBS 138; assay: MIC, CLSI-M27A3 broth microdilution in RPMI 1640; format: cell-based; details: RPMI 1640 pH 7.0, 10^3 cells ml^−1, 48 h, 35°C; MIC = growth ≤ 5%
Method: as §4, §5, §2, §3

[14] = tested on: Candida tropicalis CBS 94; assay: MIC, CLSI-M27A3 broth microdilution in RPMI 1640; format: cell-based; details: RPMI 1640 pH 7.0, 10^3 cells ml^−1, 48 h, 35°C; MIC = growth ≤ 5%
Method: as §4, §5, §2, §3

[15] = tested on: Schizosaccharomyces pombe SZMC 0142; assay: MIC, broth microdilution in LCM; format: cell-based; details: 10^5 cells ml^−1, 48 h, 30°C, MIC = growth ≤ 5% (OD620)
Method: as §4, §6, §2, §3

[16] = tested on: Candida guilliermondii CBS 566; assay: MIC, broth microdilution in LCM; format: cell-based; details: 10^5 cells ml^−1, 48 h, 30°C, MIC = growth ≤ 5% (OD620)
Method: as §4, §6, §2, §3

[17] = tested on: Candida lusitaniae CBS 6936; assay: MIC, broth microdilution in LCM; format: cell-based; details: 10^5 cells ml^−1, 48 h, 30°C, MIC = growth ≤ 5% (OD620)
Method: as §4, §6, §2, §3

[18] = tested on: Candida glabrata CBS 138; assay: MIC, broth microdilution in LCM; format: cell-based; details: 10^5 cells ml^−1, 48 h, 30°C, MIC = growth ≤ 5% (OD620)
Method: as §4, §6, §2, §3

[19] = tested on: Candida tropicalis CBS 94; assay: MIC, broth microdilution in LCM; format: cell-based; details: 10^5 cells ml^−1, 48 h, 30°C, MIC = growth ≤ 5% (OD620)
Method: as §4, §6, §2, §3

[20] = Thermal unfolding followed by ECD spectroscopy; format: physicochemical
Method: ECD spectroscopic measurements were performed using a Jasco-J815 spectropolarimeter (JASCO Corporation, Tokyo, Japan), in the far-UV range (185–260 nm). Protein samples were dissolved in pure H2O in approximately 0.1 mg ml^−1 concentration and measured in a 0.1 cm pathlength quartz cuvette. First, ECD spectra of samples were recorded at 25°C with a scan speed of […]. […] The system was allowed to equilibrate for 1 min before measurements were taken at each temperature point.
The obtained melting curves were fitted with an inverse sigmoidal function of which inflection point designated the melting temperature (Tm) of the native protein structure.
ECD spectra were also recorded at 95°C, the final temperature of the thermal unfolding experiments, then samples were allowed to cool and measured again after 5 min of equilibration at 25°C. The reported spectra are accumulations of 10 scans, from which the similarly recorded, corresponding solvent spectrum was subtracted. Data are given as molar ellipticities. Accurate protein sample concentrations for the corrections of ECD spectra were determined using analytical RP-HPLC.

[21] = RPMI 1640 pH 7.0, 10^3 cells ml^−1, 48 h, 35°C, MIC = growth ≤ 5%

In the case of OC(Cn1cncn1)(Cn1cncn1)c1ccc(F)cc1F [FLC, fluconazole, reference compound], the “MIC of the drug in combination (c)” value [1] is reported as 0.25 µg/mL, the “MIC of the drug in combination (c)” value [2] is reported as 1 µg/mL and the MIC ([3]; Candida albicans, ATCC10231, 48 h, pH 7, read-out: MIC of the drug alone (a)) is reported as 1 µg/mL. For the same compound, the MIC [4] was 64 µg/mL and the MIC ([5]; Lodderomyces parapsilosis, CBS604, 48 h, pH 7, read-out: MIC of the drug alone (a)) was 8 µg/mL.
With “IATSPYYACNCPNNCKHKKGSGCKYHSGPSDKSKVISGKCEWQGGQLNCIAT (disulfide (positions not given here)) [rNFAP2, recombinant NFAP2 produced by P. chrysogenum nfap2]” the “MIC of the drug in combination (c)” value [1] was 6.25 µg/mL, the “MIC of the drug in combination (c)” value [6] was 6.25 µg/mL and the “MIC of the drug in combination (c)” value [2] was 6.25 µg/mL. For the same compound, the MIC [7] was 3.125 µg/mL, the MIC [8] was 6.25 µg/mL and the MIC [9] was 12.5 µg/mL. For the same compound, the MIC [10] was 1.56 µg/mL, the “MIC of the drug alone (a)” value [3, 21] was 200^* μg ml^−1 and the “MIC of the drug alone (a)” value [11] was 3.125 µg/mL. The “MIC of the drug alone (a)” value [12] was over 100 µg/mL, the “MIC of the drug alone (a)” value [13] was 12.5 µg/mL and the “MIC of the drug alone (a)” value [14] was over 100 µg/mL. For the same compound, the “MIC of the drug alone (a)” value [5, 21] was 100 µg/mL, the MIC [15] was 1.56 µg/mL and the MIC [16] was 1.56 µg/mL. For the same compound, the MIC [17] was 3.125 µg/mL, the MIC [18] was 1.56 µg/mL and the MIC [19] was 1.56 µg/mL. For the same compound, the thermal denaturation reversibility ([20]; ECD at 95°C, then re-measured after cooling, 5 min at 25°C) was “reversible”, the “Tm (melting temperature of the native protein structure)” value ([20]; ECD at 228 nm, 25 to 95°C at 1°C min^−1, approx. 0.1 mg ml^−1 in H2O, inflection of sigmoidal fit) was 75.79 °C and the “native fold remains intact up to” value ([20]; thermal unfolding followed by ECD) was “approximately 70 °C”.
